Reference: patent US20230373972A1, “PIPERAZINE DERIVATIVE, PREPARATION METHOD THEREFOR AND USE THEREOF” (Zhejiang Hisun Pharmaceutical Co., Ltd., priority 2020, published 2023)

Experiments:
human plasma = assay: In-vitro anticoagulation on human plasma (APTT kit, coagulation time); conditions: concentration of the compound when the coagulation time (APTT) was prolonged twice
Experimental: The following method was used to determine the in-vitro anticoagulation of the compound of the present invention in the human plasma. In the method, an APTT kit of the MediRox company was used to test. The APTT kit was purchased from MediRox (article number MRX930), and the human plasma was prepared internally.
The preparation of the human plasma was briefly described as follows: human plasma was collected in a blood collection tube containing sodium citrate, and centrifuged at 3,000 rpm for 10 minutes at room temperature, and plasma was collected, and packaged separately and stored at −80° C.
An APTT test process was briefly described as follows: a test compound was dissolved in DMSO to prepare a 10 mM storage solution first, then the test compound was diluted with DMSO by a triple gradient, and a final concentration of the test compound in a reaction system ranged from 217 μM to 0.03 μM. 4 μL, of test compounds at different concentrations diluted with DMSO were added to a centrifuge tube containing 180 μL of plasma, and 4 μL of DMSO was added to a blank group, shaken and mixed evenly, and incubated at 37° C. for 5 minutes. Subsequently, an APTT reagent was placed in a reagent holder according to instrument requirements, the incubated plasma sample was placed in a detection position of a coagulation analyzer, and a coagulation time was determined and recorded (s). With a final concentration of the compound as an abscissa and Ratio (Ratio=TiT0, wherein T0 was a coagulation time of a blank control, and Ti was a coagulation time of a compound to be tested) as an ordinate, a coagulation dose-effect curve was drawn by Graph Pad Prisms, and a concentration of the compound when the coagulation time was prolonged twice was calculated, which was namely a CT2 value, as shown in Table 2.

[1] = target: T1, Native human Factor XIa protease (Homo sapiens, UniProt P03951); assay: Inhibition of activity of Factor XIa protease (chromogenic substrate S-2366); type: biochemical; conditions: S-2366 1 mM, 37° C. 10 minutes, absorption at 405 nm
T1 construct: The Native human Factor XIa protease was purchased from Abcam; purchased Abcam ab62411
T1 sequence (P03951 388-625 limits assumed): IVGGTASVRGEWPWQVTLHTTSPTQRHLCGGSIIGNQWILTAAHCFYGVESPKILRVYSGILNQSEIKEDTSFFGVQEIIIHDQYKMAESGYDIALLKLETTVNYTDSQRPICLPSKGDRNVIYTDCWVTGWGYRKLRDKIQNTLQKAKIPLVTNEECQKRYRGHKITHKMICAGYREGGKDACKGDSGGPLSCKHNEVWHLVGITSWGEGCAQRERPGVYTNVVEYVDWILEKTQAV
T1 sequence (P03951 19-387 partner limits assumed): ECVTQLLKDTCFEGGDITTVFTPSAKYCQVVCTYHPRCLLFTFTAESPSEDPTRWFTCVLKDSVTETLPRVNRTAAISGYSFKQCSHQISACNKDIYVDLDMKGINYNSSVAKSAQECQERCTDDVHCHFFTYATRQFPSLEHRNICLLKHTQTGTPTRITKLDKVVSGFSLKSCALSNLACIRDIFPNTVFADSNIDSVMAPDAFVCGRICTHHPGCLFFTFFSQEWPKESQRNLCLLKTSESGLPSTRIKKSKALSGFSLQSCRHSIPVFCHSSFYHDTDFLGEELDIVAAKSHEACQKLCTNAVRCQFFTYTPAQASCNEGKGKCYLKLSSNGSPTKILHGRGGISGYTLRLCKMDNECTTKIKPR
From the text: The following method was used to determine an inhibition degree of the compound of the present invention on an activity of Native human Factor XIa protease in vitro. In the method, a Factor XIa chromogenic substrate was used to test the inhibition degree on the activity of the Factor XIa protease. The Native human Factor XIa protease was purchased from Abcam (article number ab62411), and S-2366 was purchased from Chromogenix (article number 82109039). An experimental process was briefly described as follows: a test compound was dissolved in DMSO to prepare a 10 mM storage solution first, then the compound was diluted with a Factor XIa reaction buffer (100 mM Tris-HCl, 200 mM NaCl, 0.02% Tween 20, pH 7.4) by a quadruple gradient, and a final concentration of the test compound in a reaction system ranged from 10,000 nM to […]. The reaction was carried out in a 384-well microplate. 2 μL of the test compounds at different concentrations diluted with the reaction buffer were added to wells first, and 2 μL of 1% DMSO (a final concentration of DMSO in the reaction system was 0.1%) was used to replace blank and control wells. Subsequently, 8 μL of enzyme working solution (a final concentration of Factor XIa was […]) was added to each well, and 8 μL of Factor XIa reaction buffer was used to replace the blank well, centrifuged for 30 seconds, and incubated on ice for 5 minutes. Finally, 10 μL of substrate working solution (a final concentration of S-2366 was 1 mM) was added to each well, and centrifuged for 30 seconds, and the reaction was started. The solution was incubated at 37° C. for 10 minutes to determine a light absorption value at 405 nm. By comparing with a light absorption value of the control group (0.1% DMSO), a percentage inhibition rate of the compound at each concentration was calculated, and nonlinear regression analysis was carried out on value-inhibition rate with the concentration of the compound by GraphPad Prism 5 software, so as to obtain an IC50 value of the compound, as shown in Table 1.

Row | Structure (SMILES) | IC50 [1] [nM] | CT2 (human plasma) [µM]
1 | Cn1cc2cc(NC(=O)C(Cc3ccccc3)N3CC(=O)N(c4cc(Cl)ccc4-n4cc(C(F)(F)F)nn4)CC3=O)ccc2n1 (stereo not shown) [Example 121, 2-(4-(5-Chloro-2-(4-(trifluoromethyl)-1H-1,2,3-triazol-1-yl)phenyl)-2,5-dioxopiperazin-1-yl)-N-(2-methyl-2H-indazol-5-yl)-3-phenylpropanamide] | 32.7 | 16.1
2 | Cn1cc2cc(NC(=O)C(Cc3ccc(C#N)cc3)N3CC(=O)N(c4cc(Cl)ccc4-n4cc(Cl)nn4)CC3=O)ccc2n1 (stereo not shown) [Example 115, 2-(4-(5-chloro-2-(4-chloro-1H-1,2,3-triazol-1-yl)phenyl)-2,5-dioxopiperazin-1-yl)-3-(4-cyanophenyl)-N-(2-methyl-2H-indazol-5-yl)propanamide] | 46.7 | 11.7
3 | [2H]C([2H])([2H])n1cc2cc(NC(=O)C(Cc3ccc(F)cc3)N3CC(=O)N(c4cc(Cl)ccc4-n4cc(Cl)nn4)CC3=O)ccc2n1 (stereo not shown) [Example 114, 2-(4-(5-chloro-2-(4-chloro-1H-1,2,3-triazol-1-yl)phenyl)-2,5-dioxopiperazin-1-yl)-3-(4-fluorophenyl)-N-(2-(methyl-d3)-2H-indazol-5-yl)propanamide] | 48.6 | 14.9
4 | O=C(Nc1ccc(N2CCOC2=O)cc1)C(Cc1ccccc1)N1CC(=O)N(c2cc(Cl)ccc2-n2cnnn2)CC1=O (stereo not shown) [Example 14, 2-(4-(5-Chloro-2-(1H-tetrazol-1-yl)phenyl)-2,5-dioxopiperazin-1-yl)-N-(4-(2-oxooxazolidin-3-yl)phenyl)-3-phenylpropanamide] | 44 | 14.3
5 | O=C(O)c1ccc(NC(=O)C(Cc2ccccc2)N2CC(=O)N(c3cc(Cl)ccc3-n3cc(Cl)nn3)CC2=O)cc1 (stereo not shown) [Example 26, 4-(2-(4-(5-Chloro-2-(4-chloro-1H-1,2,3-triazol-1-yl)phenyl)-2,5-dioxopiperazin-1-yl)-3-phenylpropanamido)benzoic Acid] | 16.9 | 7.0
6 | Cn1cc2cc(NC(=O)C(Cc3ccc(F)cc3)N3CC(=O)N(c4cc(Cl)ccc4-n4cnnn4)CC3=O)ccc2n1 (stereo not shown) [Example 41, 2-(4-(5-Chloro-2-(1H-tetrazol-1-yl)phenyl)-2,5-dioxopiperazin-1-yl)-3-(4-fluorophenyl)-N-(2-methyl-2H-indazol-5-yl)propanamide] | 38.5 | 8.5
7 | O=C(Nc1ccc2c(cnn2C(F)F)c1)C(Cc1ccccc1)N1CC(=O)N(c2cc(Cl)ccc2-n2cnnn2)CC1=O (stereo not shown) [Example 33, 2-(4-(5-chloro-2-(1H-tetrazol-1-yl)phenyl)-2,5-dioxopiperazin-1-yl)-N-(1-(difluoromethyl)-1H-indazol-5-yl)-3-phenylpropanamide] | 26.1 | 18.5
8 | O=C(Nc1ccn2nccc2c1)C(Cc1ccccc1)N1CC(=O)N(c2cc(Cl)ccc2-n2cc(Cl)nn2)CC1=O (stereo not shown) [Example 40, 2-(4-(5-chloro-2-(4-chloro-1H-1,2,3-triazol-1-yl)phenyl)-2,5-dioxopiperazin-1-yl)-3-phenyl-N-(pyrazolo[1.5-a]pyridin-5-yl)propanamide] | 44.7 | 
9 | O=C(Nc1ccc2nccnc2c1)C(Cc1ccccc1)N1CC(=O)N(c2cc(Cl)ccc2-n2cc(Cl)nn2)CC1=O (stereo not shown) [Example 24, 2-(4-(5-Chloro-2-(4-chloro-1H-1,2,3-triazol-1-yl)phenyl)-2,5-dioxopiperazin-1-yl)-3-phenyl-N-(quinoxalin-6-yl)propanamide] | 23.2 | 

Now from value to compound, other results behind:

Row | IC50 [1] [nM] | Structure (SMILES) | CT2 (human plasma) [µM]
10 | 15.5 | O=C1NCc2cc(NC(=O)C(Cc3ccccc3)N3CC(=O)N(c4cc(Cl)ccc4-n4cnnn4)CC3=O)ccc21 (stereo not shown) [Example 7, 2-(4-(5-Chloro-2-(1H-tetrazol-1-yl)phenyl)-2,5-dioxopiperazine-1-yl)-N-(1-oxoisoindolin-5-yl)-3-phenylpropanamide] | 9.8
11 | 36.7 | NC(=O)c1ccc(NC(=O)C(Cc2ccccc2)N2CC(=O)N(c3cc(Cl)ccc3-n3cnnn3)CC2=O)cc1 (stereo not shown) [Example 3, 4-(2-(4-(5-Chloro-2-(1H-tetrazol-1-yl)phenyl)-2,5-dioxopiperazin-1-yl)-3-phenylpropanamido)benzamide] | 6.6
12 | 29.9 | COC(=O)c1ccc(NC(=O)C(Cc2ccccc2)N2CC(=O)N(c3cc(Cl)ccc3-n3cnnn3)CC2=O)cc1 (stereo not shown) [Example 5, Methyl 4-(2-(4-(5-Chloro-2-(1H-tetrazol-1-yl)phenyl)-2,5-dioxopiperazin-1-yl)-3-phenylpropanamido)benzoate] | 17.8
13 | 30.5 | CNC(=O)c1ccc(NC(=O)C(Cc2ccccc2)N2CC(=O)N(c3cc(Cl)ccc3-n3cnnn3)CC2=O)cc1F (stereo not shown) [Example 20, 4-(2-(4-(5-Chloro-2-(1H-tetrazol-1-yl)phenyl)-2,5-dioxopiperazin-1-yl)-3-phenylpropanamido)-2-fluoro-N-methylbenzamide] | 8.6
14 | 38.9 | Cn1cc2ccc(NC(=O)C(Cc3ccccc3)N3CC(=O)N(c4cc(Cl)ccc4-n4cnnn4)CC3=O)cc2n1 (stereo not shown) [Example 31, 2-(4-(5-Chloro-2-(1H-tetrazol-1-yl)phenyl)-2,5-dioxopiperazin-1-yl)-N-(2-methyl-2H-indazol-6-yl)-3-phenylpropanamide] | 13.7
15 | 20.5 | O=C(Nc1ccc2nccnc2c1)C(Cc1ccccc1)N1CC(=O)N(c2cc(Cl)ccc2-n2cnnn2)CC1=O (stereo not shown) [Example 18, 2-(4-(5-Chloro-2-(1H-tetrazol-1-yl)phenyl)-2,5-dioxopiperazin-1-yl)-3-phenyl-N-(quinoxalin-6-yl)propanamide] | 7.9
16 | 10.4 | O=C(Nc1ccc2nn(C(F)F)cc2c1)C(Cc1ccccc1)N1CC(=O)N(c2cc(Cl)ccc2-n2cnnn2)CC1=O (stereo not shown) [Example 34, 2-(4-(5-Chloro-2-(1H-tetrazol-1-yl)phenyl)-2,5-dioxopiperazin-1-yl)-N-(2-(difluoromethyl)-2H-indazol-5-yl)-3-phenylpropanamide] | 5.9
17 | 25.1 | O=C(Nc1cccc(F)c1)C(Cc1ccccc1)N1CC(=O)N(c2cc(Cl)ccc2-n2cnnn2)CC1=O (stereo not shown) [Example 15, 2-(4-(5-Chloro-2-(1H-tetrazol-1-yl)phenyl)-2,5-dioxopiperazine-1-yl)-N-(3-fluorophenyl)-3-phenylpropanamide] | 9.9
18 | 17.6 | O=C(Nc1ccn2nccc2c1)C(Cc1ccccc1)N1CC(=O)N(c2cc(Cl)ccc2-n2cnnn2)CC1=O (stereo not shown) [Example 37, 2-(4-(5-chloro-2-(1H-tetrazol-1-yl)phenyl)-2,5-dioxopiperazin-1-yl)-3-phenyl-N-(pyrazolo[1.5-a]pyridin-5-yl)propanamide] | 7.5
19 | 22.8 | CN1Cc2cc(NC(=O)C(Cc3ccccc3)N3CC(=O)N(c4cc(Cl)ccc4-n4cnnn4)CC3=O)ccc2C1=O (stereo not shown) [Example 12, 2-(4-(5-Chloro-2-(1H-tetrazol-1-yl)phenyl)-2,5-dioxopiperazin-1-yl)-N-(2-methyl-1-oxoisoindolin-5-yl)-3-phenylpropanamide] | 4.4
20 | 17.7 | COC(=O)N1CCc2cc(NC(=O)C(Cc3ccccc3)N3CC(=O)N(c4cc(Cl)ccc4-n4cnnn4)CC3=O)ccc21 (stereo not shown) [Example 8, Methyl 5-(2-(4-(5-chloro-2-(1H-tetrazol-1-yl)phenyl)-2,5-dioxopiperazin-1-yl)-3-phenylpropanamido)indoline-1-carboxylate] | 
